pIC50: −log10 of the molar value.
Columns and labels:
Na^+,K^+ -ATPase [1] = target: T1, Na^+,K^+ -ATPase (Homo sapiens, UniProt P05023); experiment: displacement of the specific 3H-ouabain binding from the purified Na+,K+-ATPase receptor; details: for IC50: 3H-ouabain displacement, purified Na+,K+-ATPase, read-out: Binding ^3 H-Ouab. Displacement log IC50 (converted)
T1 construct: Na^+,K^+ -ATPase receptor purified according to Jorghensen; from tissue
Source text: (§1) To test the affinity for the receptor site of the Na^+,K^+ -ATPase and the inhibitory activity on the enzyme, the following tests were used: a) displacement of the specific ^3 H-ouabain binding from the Na^+,K^+ -ATPase receptor purified according to Jorghensen (Jorghensen P., BBA, 1974, 356, 36) and Erdmann (Erdmann E. et at., Arzneim.Forsh., 1984, 34, 1314): b) inhibition of the activity of the purified Na^+,K^+ -ATPase measured as % of hydrolysis of ^32 P-ATP in presence and in absence of the tested compound (Doucet A. et at., Am.

Na^+,K^+ -ATPase [2] = target: T1, Na^+,K^+ -ATPase; experiment: inhibition of the activity of the purified Na+,K+-ATPase measured as % of hydrolysis of 32P-ATP; format: biochemical; details: for IC50: purified Na+,K+-ATPase, 32P-ATP hydrolysis, read-out: Inhibitory Activity log IC50 (converted)
Source text: as §1

[3] = test system: spontaneous hypertensive rats (MHS); experiment: blood pressure lowering in spontaneous hypertensive MHS rats (indirect tail-cuff, oral, ten days); format: in vivo, rat (Milan hypertensive strain; details: n = 7, 20 mg/Kg/os daily in METHOCEL 0.5% w/v; for SBP (systolic blood pressure): controls 172 +/- 2.0; for HR (heart rate): controls 328 +/- 8.6
Source text: To test the affinity for the receptor site of the Na^+,K^+ -ATPase and the inhibitory activity on the enzyme, the following tests were used: a) displacement of the specific ^3 H-ouabain binding from the Na^+,K^+ -ATPase receptor purified according to Jorghensen (Jorghensen P., BBA, 1974, 356, 36) and Erdmann (Erdmann E. et at., Arzneim.Forsh., 1984, 34, 1314): b) inhibition of the activity of the purified Na^+,K^+ -ATPase measured as % of hydrolysis of ^32 P-ATP in presence and in absence of the tested compound (Doucet A. et at., Am. […] The ability of these compounds to lower blood pressure was tested by using animal models with genetic arterial hypertension, in particular, spontaneous hypertensive rats of the Milan (MHS) (Bianchi G., Ferrari P., Barber B. The Milan Hypertensive strain. In Handbook of hypertension. Vol.4: Experimental and genetic models of hypertension. Ed. W. de jong-Elsevier Science Publishers B.V., 1984: 328-349).
The procedure adopted to test the antihypertensive activity of the compounds on the above mentioned model was the following: systolic blood pressure (SBP) and heart rate (HR) were measured by an indirect tail-cuff method in three-month old hypertensive rats (MHS) before beginning the treatment (basal values). The rats were then subdivided in two groups of at least 7 animals each, one receiving the compound the other, the control group, receiving only the vehicle. The compound, suspended in METHOCEL 0.5% (w/v), was administered daily by mouth, for ten days. SBP and HR were measured daily 6 and 24 hours after the treatment. At the end of the ten day treatment period, a washout period of at least two days was carried out, in order to check for how long the SBP was mantained low or the basal values were re-established.

[4] = literature statement; cited from earlier work

SMILES	IC50 (Na^+,K^+ -ATPase [1])	IC50 (Na^+,K^+ -ATPase [2])	other results
C[C@]12CC[C@H](O)C[C@@H]1CC[C@@H]1[C@@H]2CC[C@]2(C)[C@@](O)(c3ccsc3)CC[C@]12O [Comp. I - bk, 17β-(3-Thienyl)-5α-androstane-3β,14β,17α-triol]	7.94 µM	63.1 µM	–
CNCCO[C@@H]1C=C2CC[C@@H]3[C@H](CC[C@]4(C)[C@@](O)(c5ccoc5)CC[C@]34O)[C@@]2(C)CC1 [Comp. I - bt, 3β-(2-Methylaminoethoxy)-17β-(3-furyl)androst-4-ene-14β,17α-diol]	3.16 µM	50.1 µM	–
C[C@]12CC[C@H]3[C@@H](CCC4=C[C@@H](OCCO)CC[C@@]43C)[C@@]1(O)CC[C@]2(O)c1ccoc1 [Comp. I - ai, 3β-(2-Hydroxyethoxy)-17β-(3-furyl)androst-4-ene-14β,17α-diol]	5.01 µM	39.8 µM	–
C[C@]12CC[C@H]3[C@@H](CC=C4C[C@@H](O)CC[C@@]43C)[C@@]1(O)CC[C@]2(O)c1nccs1 [Comp. I - bn, 17β-(2-Thiazolyl)androst-5-ene-3β,14β,17α-triol]	7.94 µM	63.1 µM	–
C[C@]12CC[C@H]3[C@@H](C=CC4=C[C@@H](O)CC[C@@]43C)[C@@]1(O)CC[C@]2(O)c1ccccc1 [Comp. I - au, 17β-Phenylandrosta-4,6-diene-3β,14β,17α-triol]	5.01 µM	31.6 µM	–
C[C@]12CC[C@H]3[C@@H](CCC4=C[C@@H](OCCCNC(=N)N)CC[C@@]43C)[C@@]1(O)CC[C@]2(O)c1ccoc1 [Comp. I - bu]	3.16 µM	63.1 µM	–
C[C@]12CC[C@H]3[C@@H](CC=C4C[C@@H](O)CC[C@@]43C)[C@@]1(O)CC[C@]2(O)c1ccco1 [Comp. I - bq, 17β-(2-Furyl)androst-5-ene-3β,14β,17α-triol]	5.01 µM	79.4 µM	–
C[C@]12CC[C@H]3[C@@H](CCC4=C[C@@H](OCCCN)CC[C@@]43C)[C@@]1(O)CC[C@]2(O)c1ccccc1 [Comp. I - ae, 3β-(3-Aminopropoxy)-17β-phenylandrost-4-ene-14β,17α-diol]	–	–	SBP (systolic blood pressure) [3]: 157 +/- 3.7 mm Hg; HR (heart rate) [3]: 312 +/- 9.4 beats/min.
C[C@]12CC[C@H]3[C@@H](CCC4=C[C@@H](OCC(N)CN)CC[C@@]43C)[C@@]1(O)CC[C@]2(O)c1ccoc1 (stereo partly drawn) [Comp. I - bw, 3β-((2RS)-2,3-Diaminopropoxy)-17β-(3-furyl)-androst-4-ene-14β,17α-diol]	3.98 µM	100 µM	–
C[C@]12CC[C@H](O)C[C@@H]1CC[C@@H]1[C@@H]2CC[C@]2(C)[C@@](O)(c3cccnc3)CC[C@]12O [Comp. I - bl, 17β-(3-Pyridyl)-5α-androstane-3β,14β,17α-triol]	5.01 µM	63.1 µM	SBP (systolic blood pressure) [3]: 156 +/- 3.5 mm Hg; HR (heart rate) [3]: 318 +/- 9.5 beats/min.
C[C@]12CC[C@H](O)C[C@H]1CC[C@@H]1[C@@H]2CC[C@]2(C)[C@@](O)(C3=CC(=O)OC3)CC[C@]12O [Ref. comp., 3β,14β,17α-trihydroxy-5β-card-20(22)-enolide, reference compound]	–	–	antihypertensive action [4]: do not show antihypertensive action; pIC50 (Na^+,K^+ -ATPase [1]): 5.90; SBP (systolic blood pressure) [3]: 174 +/- 2.1 mm Hg; HR (heart rate) [3]: 340 +/- 10.2 beats/min.; pIC50 (Na^+,K^+ -ATPase [2]): 5.30
C[C@]12CC[C@H]3[C@@H](CC=C4C[C@@H](O)CC[C@@]43C)[C@@]1(O)CC[C@]2(O)c1ccc(Cl)cc1 [Comp. I - bj, 17β-(4-Chlorophenyl)androst-5-ene-3β,14β,17α-triol]	5.01 µM	100 µM	–
C[C@]12CC[C@H]3[C@@H](CCC4=C[C@@H](O)CC[C@@]43C)[C@@]1(O)CC[C@]2(O)c1ccoc1 [Comp. I - ah, 17β-(3-Furyl)androst-4-ene-3β,14β,17α-triol]	3.16 µM	50.1 µM	SBP (systolic blood pressure) [3]: 154 +/- 4.1 mm Hg; HR (heart rate) [3]: 315 +/- 10.1 beats/min.
C[C@]12C=C[C@H](O)C[C@@H]1CC[C@@H]1[C@@H]2CC[C@]2(C)[C@@](O)(c3ccoc3)CC[C@]12O [Comp. I - ab, 17β-(3-Furyl)-5α-androst-1-ene-3β,14β, 17α-triol]	3.98 µM	31.6 µM	–
CN(C)c1ccc([C@@]2(O)CC[C@]3(O)[C@@H]4CC=C5C[C@@H](O)CC[C@]5(C)[C@H]4CC[C@]23C)cc1 [Comp. I - bp, 17β-(4-(N,N-Dimethylaminophenyl))androst-5-ene-3β,14β,17α-triol]	6.31 µM	50.1 µM	–
C[C@]12CC[C@H]3[C@@H](CCC4=C[C@@H](OCCCN)CC[C@@]43C)[C@@]1(O)CC[C@]2(O)c1ccoc1 [Comp. I - aj, 3β-(3-Aminopropoxy)-17β-(3-furyl)androst-4-ene-14β,17α-diol]	1 µM	12.6 µM	SBP (systolic blood pressure) [3]: 150 +/- 3.9 mm Hg; HR (heart rate) [3]: 310 +/- 9.0 beats/min.
C[C@]12CC[C@H]3[C@@H](CCC4=C[C@@H](OCC(O)CO)CC[C@@]43C)[C@@]1(O)CC[C@]2(O)c1ccoc1 (stereo partly drawn) [Comp. I - bv, 3β-((2RS)-2,3-Dihydroxypropoxy)-17β-(3-furyl)androst-4-ene-14β,17α-diol]	3.98 µM	79.4 µM	–
C[C@]12CC[C@H]3[C@@H](CC=C4C[C@@H](O)CC[C@@]43C)[C@@]1(O)CC[C@]2(O)c1ccccc1 [Comp. I - ap, 17β-Phenylandrost-5-ene-3β,14β,17α-triol]	7.94 µM	100 µM	–
C[C@]12CC[C@H]3[C@@H](CCC4=C[C@@H](O)CC[C@@]43C)[C@@]1(O)CC[C@]2(O)c1ccccc1 [Comp. I - ac, 17β-Phenylandrost-4-ene-3β,14β,17α-triol]	6.31 µM	79.4 µM	–
COc1ccc([C@@]2(O)CC[C@]3(O)[C@@H]4CCC5=C[C@@H](O)CC[C@]5(C)[C@H]4CC[C@]23C)cc1 [Comp. I - bi, 17β-(4-Methoxyphenyl)androst-4-ene-3β,14β,17α-triol]	3.16 µM	39.8 µM	–
C[C@]12CC[C@H](O)C[C@@H]1CC[C@@H]1[C@@H]2CC[C@]2(C)[C@@](O)(c3ccccc3)CC[C@]12O [Comp. I - ay, 17β-Phenyl-5α-androstane-3β,14β,17α-triol]	5.01 µM	79.4 µM	–
C[C@]12CC[C@H]3[C@@H](CCC4=C[C@@H](OCCN5CCCC5)CC[C@@]43C)[C@@]1(O)CC[C@]2(O)c1ccoc1 [Comp. I - br, 3β-(2-(1-Prrolidinyl)ethoxy)-17β-(3-furyl)androst-4-ene-14β,17α-diol]	1.58 µM	25.1 µM	–
C[C@]12CC[C@H]3[C@@H](CCC4=C[C@@H](SCCCN)CC[C@@]43C)[C@@]1(O)CC[C@]2(O)c1ccoc1 [Comp. I - by, 3β-(3-Aminopropylthio)-17β-(3-furyl)androst-4-ene-14β,17α-diol]	1.58 µM	12.6 µM	–

Source: patent US5556846A, “17-heterocyclyl-14beta-5alpha-androstane, androstene and androstadiene derivatives active on the cardiovascular system, and pharmaceutical compositions containing same” (Sigma-Tau Industrie Farmaceutiche Riunite S.p.A., priority 1992, dated 1996)
